Source: US9150566B2, “2-(1,2,3-triazol-2-yl)benzamide and 3-(1,2,3-triazol-2-YL)picolinamide derivatives as orexin receptor antagonists” (ACTELION PHARMACEUTICALS LTD., priority 2011, dated 2015)
Read-outs that look alike come from different tables or passages of the source.

Experiments:
human orexin-1 receptor = human orexin-1 receptor (Homo sapiens (Human), UniProt O43613); test: In vitro intracellular calcium measurements (FLIPR), antagonistic activity on orexin-1 receptor; format: cell-based; settings: read-out: IC50 OX1
Sequence of human orexin-1 receptor (O43613 whole entry): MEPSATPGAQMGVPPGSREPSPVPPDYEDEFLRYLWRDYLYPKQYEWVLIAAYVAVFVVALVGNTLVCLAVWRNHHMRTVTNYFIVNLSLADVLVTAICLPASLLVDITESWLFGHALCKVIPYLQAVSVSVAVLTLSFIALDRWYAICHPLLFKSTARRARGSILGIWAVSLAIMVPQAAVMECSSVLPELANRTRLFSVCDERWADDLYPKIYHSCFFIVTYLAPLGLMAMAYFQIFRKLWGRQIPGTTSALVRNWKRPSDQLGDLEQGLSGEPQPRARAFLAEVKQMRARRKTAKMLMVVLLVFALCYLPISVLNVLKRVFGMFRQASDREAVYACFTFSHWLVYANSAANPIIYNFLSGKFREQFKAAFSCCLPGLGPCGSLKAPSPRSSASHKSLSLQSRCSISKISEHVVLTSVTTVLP
Procedure, shortened: (§1)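 Recombinant CHO lines bearing human OX1 or OX2 receptors received test antagonist 120 min before agonist addition.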

human orexin-2 receptor = human orexin-2 receptor (Homo sapiens (Human), UniProt O43614); test: In vitro intracellular calcium measurements (FLIPR), antagonistic activity on orexin-2 receptor; format: cell-based; settings: read-out: IC50 OX2
Sequence of human orexin-2 receptor (O43614 whole entry): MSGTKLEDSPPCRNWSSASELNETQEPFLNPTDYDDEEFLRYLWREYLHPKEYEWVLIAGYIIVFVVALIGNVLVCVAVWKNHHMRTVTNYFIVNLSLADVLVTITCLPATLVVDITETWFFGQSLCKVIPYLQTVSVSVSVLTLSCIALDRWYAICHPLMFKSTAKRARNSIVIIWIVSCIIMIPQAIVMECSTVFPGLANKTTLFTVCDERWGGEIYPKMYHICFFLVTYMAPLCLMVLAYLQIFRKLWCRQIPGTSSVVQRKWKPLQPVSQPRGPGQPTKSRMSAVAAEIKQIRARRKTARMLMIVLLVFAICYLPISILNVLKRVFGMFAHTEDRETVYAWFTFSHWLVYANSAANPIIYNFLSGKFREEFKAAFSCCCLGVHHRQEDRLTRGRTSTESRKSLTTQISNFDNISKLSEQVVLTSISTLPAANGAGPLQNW
Procedure, shortened: as §1

CYP3A4 = CYP3A4 (Homo sapiens (Human), UniProt P08684); test: CYP3A4 inhibition assay (human liver microsomes, testosterone 6β-hydroxylation); settings: read-out: CYP3A4 IC50, 40 μM testosterone
Sequence of CYP3A4 (P08684 whole entry): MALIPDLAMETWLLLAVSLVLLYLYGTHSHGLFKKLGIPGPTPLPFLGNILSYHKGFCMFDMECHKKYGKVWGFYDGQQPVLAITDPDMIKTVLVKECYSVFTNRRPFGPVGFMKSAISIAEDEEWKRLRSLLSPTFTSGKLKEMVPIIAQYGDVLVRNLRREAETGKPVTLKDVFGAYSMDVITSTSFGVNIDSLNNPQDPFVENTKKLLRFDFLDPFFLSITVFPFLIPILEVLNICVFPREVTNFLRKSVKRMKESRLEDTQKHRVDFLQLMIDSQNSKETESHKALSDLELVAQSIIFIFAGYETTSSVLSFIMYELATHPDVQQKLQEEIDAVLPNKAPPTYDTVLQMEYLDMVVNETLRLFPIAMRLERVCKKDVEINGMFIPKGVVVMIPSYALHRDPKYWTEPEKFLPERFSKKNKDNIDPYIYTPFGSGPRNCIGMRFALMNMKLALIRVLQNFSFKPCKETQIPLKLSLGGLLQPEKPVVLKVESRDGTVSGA

[1] = CHO cells expressing human orexin-1 receptor, FLIPR, 3 nM orexin-A agonist, 120 min antagonist incubation, geometric mean if determined several times
[2] = CHO cells expressing human orexin-2 receptor, FLIPR, 3 nM orexin-A agonist, 120 min antagonist incubation, geometric mean if determined several times

Row | SMILES | IC50 (human orexin-1 receptor; [1]) | IC50 (human orexin-2 receptor; [2]) | IC50 (CYP3A4) | IC50 (human orexin-1 receptor) | IC50 (human orexin-2 receptor)
1 | C[C@@H]1CN(C(=O)c2cc(Cl)ccc2-n2nccn2)[C@H](Cc2cccc(-c3ncccn3)c2)CO1 [Example 113, (5-Chloro-2-[1,2,3]triazol-2-yl-phenyl)-[(2R,5R)-2-methyl-5-(3-pyrimidin-2-yl-benzyl)-morpholin-4-yl]-methanone] | 2 nM | 110 nM | 26000 nM | – | –
2 | C[C@@H]1CN(C(=O)c2ccc(Cl)cc2-n2nccn2)[C@H](Cc2cccc(-c3ncccn3)c2)CO1 [Example 114, (4-Chloro-2-[1,2,3]triazol-2-yl-phenyl)-[(2R,5R)-2-methyl-5-(3-pyrimidin-2-yl-benzyl)-morpholin-4-yl]-methanone] | 1 nM | 83 nM | 35000 nM | – | –
3 | Cc1ccc(-n2nccn2)c(C(=O)N2C[C@@H](C)OC[C@H]2Cc2cc(-n3nccn3)ccc2F)c1 [Example 115, [(2R,5R)-5-(2-Fluoro-5-[1,2,3]triazol-2-yl-benzyl)-2-methyl-morpholin-4-yl]-(5-methyl-2-[1,2,3]triazol-2-yl-phenyl)-methanone] | 2 nM | 146 nM | 24000 nM | – | –
4 | Cc1ccc(C(=O)N2C[C@@H](C)OC[C@H]2Cc2cc(-n3nccn3)ccc2F)c(-n2nccn2)c1 [Example 117, [(2R,5R)-5-(2-Fluoro-5-[1,2,3]triazol-2-yl-benzyl)-2-methyl-morpholin-4-yl]-(4-methyl-2-[1,2,3]triazol-2-yl-phenyl)-methanone] | 5 nM | 107 nM | 23000 nM | – | –
5 | Cc1cccc(C(=O)N2C[C@@H](C)OC[C@H]2Cc2cc(-n3nccn3)ccc2F)c1-n1nccn1 [Example 118, [(2R,5R)-5-(2-Fluoro-5-[1,2,3]triazol-2-yl-benzyl)-2-methyl-morpholin-4-yl]-(3-methyl-2-[1,2,3]triazol-2-yl-phenyl)-methanone] | 10 nM | 728 nM | 23000 nM | – | –
6 | Cc1ccc(-n2nccn2)c(C(=O)N2CCOC[C@H]2Cc2cc(-n3nccn3)ccc2C)c1 [Example 119, [(R)-3-(2-Methyl-5-[1,2,3]triazol-2-yl-benzyl)-morpholin-4-yl]-(5-methyl-2-[1,2,3]triazol-2-yl-phenyl)-methanone] | 6 nM | 593 nM | 19000 nM | – | –
7 | Cc1ccc(-n2nccn2)cc1C[C@@H]1COCCN1C(=O)c1ccccc1-n1nccn1 [Example 121, [(R)-3-(2-Methyl-5-[1,2,3]triazol-2-yl-benzyl)-morpholin-4-yl]-(2-[1,2,3]triazol-2-yl-phenyl)-methanone] | 26 nM | 1640 nM | 18000 nM | – | –
8 | Cc1cccc(C(=O)N2CCOC[C@H]2Cc2cc(-n3nccn3)ccc2Cl)c1-n1nccn1 [Example 122, [(R)-3-(2-Chloro-5-[1,2,3]triazol-2-yl-benzyl)-morpholin-4-yl]-(3-methyl-2-[1,2,3]triazol-2-yl-phenyl)-methanone] | 6 nM | 1610 nM | 18000 nM | – | –
9 | Cc1ccc(C(=O)N2CCOC[C@H]2Cc2cc(-n3nccn3)ccc2C)c(-n2nccn2)c1 [Example 123, [(R)-3-(2-Methyl-5-[1,2,3]triazol-2-yl-benzyl)-morpholin-4-yl]-(4-methyl-2-[1,2,3]triazol-2-yl-phenyl)-methanone] | – | – | 27000 nM | 5 nM | 939 nM
10 | Cc1ccc(-n2nccn2)cc1C[C@@H]1COCCN1C(=O)c1cccc(C)c1-n1nccn1 [Example 124, [(R)-3-(2-Methyl-5-[1,2,3]triazol-2-yl-benzyl)-morpholin-4-yl]-(3-methyl-2-[1,2,3]triazol-2-yl-phenyl)-methanone] | 9 nM | 997 nM | 22000 nM | – | –
11 | Cc1ccc(-n2nccn2)c(C(=O)N2CCOC[C@H]2Cc2cc(-n3nccn3)ccc2Cl)c1 [Example 125, [(R)-3-(2-Chloro-5-[1,2,3]triazol-2-yl-benzyl)-morpholin-4-yl]-(5-methyl-2-[1,2,3]triazol-2-yl-phenyl)-methanone] | 7 nM | 626 nM | 22000 nM | – | –
12 | O=C(c1ccccc1-n1nccn1)N1CCOC[C@H]1Cc1cc(-n2nccn2)ccc1Cl [Example 126, [(R)-3-(2-Chloro-5-[1,2,3]triazol-2-yl-benzyl)-morpholin-4-yl]-(2-[1,2,3]triazol-2-yl-phenyl)-methanone] | 40 nM | 1480 nM | 17000 nM | – | –
13 | Cc1cccc(C(=O)N2CCOC[C@H]2Cc2cc(-n3nccn3)ccc2F)c1-n1nccn1 [Example 127, [(R)-3-(2-Fluoro-5-[1,2,3]triazol-2-yl-benzyl)-morpholin-4-yl]-(3-methyl-2-[1,2,3]triazol-2-yl-phenyl)-methanone] | 26 nM | 1500 nM | 30000 nM | – | –
14 | O=C(c1cc(Cl)ccc1-n1nccn1)N1CCOC[C@H]1Cc1cc(-n2nccn2)ccc1F [Example 129, (5-Chloro-2-[1,2,3]triazol-2-yl-phenyl)-[(R)-3-(2-fluoro-5-[1,2,3]triazol-2-yl-benzyl)-morpholin-4-yl]-methanone] | 12 nM | 188 nM | 26000 nM | – | –
15 | COc1ccc(-n2nccn2)c(C(=O)N2CCOC[C@H]2Cc2cc(-n3nccn3)ccc2F)c1 [Example 131, [(R)-3-(2-Fluoro-5-[1,2,3]triazol-2-yl-benzyl)-morpholin-4-yl]-(5-methoxy-2-[1,2,3]triazol-2-yl-phenyl)-methanone] | 4 nM | 1130 nM | 35000 nM | – | –
16 | Cc1ccc(-n2nccn2)c(C(=O)N2CCOC[C@H]2Cc2cc(-n3nccn3)ccc2F)c1F [Example 132, (2-Fluoro-3-methyl-6-[1,2,3]triazol-2-yl-phenyl)-[(R)-3-(2-fluoro-5-[1,2,3]triazol-2-yl-benzyl)-morpholin-4-yl]-methanone] | 8 nM | 1170 nM | 19000 nM | – | –

Second part, led by results:

Row | IC50 (human orexin-1 receptor; [1]) | IC50 (human orexin-2 receptor; [2]) | IC50 (CYP3A4) | SMILES | IC50 (human orexin-1 receptor) | IC50 (human orexin-2 receptor)
17 | 22 nM | 2600 nM | 37000 nM | COc1ccc(-n2nccn2)c(C(=O)N2CCOC[C@H]2Cc2cc(-n3nccn3)ccc2F)c1F [Example 133, (2-Fluoro-3-methoxy-6-[1,2,3]triazol-2-yl-phenyl)-[(R)-3-(2-fluoro-5-[1,2,3]triazol-2-yl-benzyl)-morpholin-4-yl]-methanone] | – | –
18 | 11 nM | 336 nM | 19000 nM | COc1cc(C(=O)N2CCOC[C@H]2Cc2cc(-n3nccn3)ccc2F)c(-n2nccn2)cc1C [Example 134, [(R)-3-(2-Fluoro-5-[1,2,3]triazol-2-yl-benzyl)-morpholin-4-yl]-(5-methoxy-4-methyl-2-[1,2,3]triazol-2-yl-phenyl)-methanone] | – | –
19 | 16 nM | 1880 nM | 30000 nM | O=C(c1cccc(Cl)c1-n1nccn1)N1CCOC[C@H]1Cc1cc(-n2nccn2)ccc1F [Example 135, (3-Chloro-2-[1,2,3]triazol-2-yl-phenyl)-[(R)-3-(2-fluoro-5-[1,2,3]triazol-2-yl-benzyl)-morpholin-4-yl]-methanone] | – | –
20 | 4 nM | 159 nM | 7400 nM | O=C(c1ccc(C(F)(F)F)cc1-n1nccn1)N1CCOC[C@H]1Cc1cc(-n2nccn2)ccc1F [Example 138, [(R)-3-(2-Fluoro-5-[1,2,3]triazol-2-yl-benzyl)-morpholin-4-yl]-(2-[1,2,3]triazol-2-yl-4-trifluoromethyl-phenyl)-methanone] | – | –
21 | 10 nM | 191 nM | 13000 nM | COc1cc(C(=O)N2CCOC[C@H]2Cc2cc(-n3nccn3)ccc2F)c(-n2nccn2)cc1Cl [Example 139, (4-Chloro-5-methoxy-2-[1,2,3]triazol-2-yl-phenyl)-[(R)-3-(2-fluoro-5-[1,2,3]triazol-2-yl-benzyl)-morpholin-4-yl]-methanone] | – | –
22 | 16 nM | 429 nM | 19000 nM | Cc1ccc(C(=O)N2C[C@@H](C)OC[C@H]2Cc2cc(-n3ccnn3)ccc2F)c(-n2nccn2)c1 [Example 141, [(2R,5R)-5-(2-Fluoro-5-[1,2,3]triazol-1-yl-benzyl)-2-methyl-morpholin-4-yl]-(4-methyl-2-[1,2,3]triazol-2-yl-phenyl)-methanone] | – | –
23 | 5 nM | 287 nM | 9200 nM | CC[C@@H]1CN(C(=O)c2cc(C)ccc2-n2nccn2)[C@H](Cc2cccc(-n3nccn3)c2)CO1 [Example 142, [(2R,5R)-2-Ethyl-5-(3-[1,2,3]triazol-2-yl-benzyl)-morpholin-4-yl]-(5-methyl-2-[1,2,3]triazol-2-yl-phenyl)-methanone] | – | –
24 | 19 nM | 485 nM | 9100 nM | CC[C@@H]1CN(C(=O)c2ccccc2-n2nccn2)[C@H](Cc2cccc(-n3nccn3)c2)CO1 [Example 143, [(2R,5R)-2-Ethyl-5-(3-[1,2,3]triazol-2-yl-benzyl)-morpholin-4-yl]-(2-[1,2,3]triazol-2-yl-phenyl)-methanone] | – | –
25 | 5 nM | 104 nM | 9600 nM | CC[C@@H]1CN(C(=O)c2ccc(C)cc2-n2nccn2)[C@H](Cc2cccc(-n3nccn3)c2)CO1 [Example 144, [(2R,5R)-2-Ethyl-5-(3-[1,2,3]triazol-2-yl-benzyl)-morpholin-4-yl]-(4-methyl-2-[1,2,3]triazol-2-yl-phenyl)-methanone] | – | –
26 | 34 nM | 1510 nM | 22000 nM | O=C(c1ccccc1-n1nccn1)N1CCOC[C@H]1Cc1cc(F)cc(-n2nccn2)c1 [Example 145, [(R)-3-(3-Fluoro-5-[1,2,3]triazol-2-yl-benzyl)-morpholin-4-yl]-(2-[1,2,3]triazol-2-yl-phenyl)-methanone] | – | –
